Patent US8729017B2 (priority 2011, dated 2014)
Numbered stars: 1 amine (or outer) side, 2 acyl side, 3 side chain; on linkers, the order of the positions; unused ones are H or OH. Square brackets hold non-standard residues; d marks the D form. Side chains are listed from the residue outwards. Peptide text beside a SMILES is read from it. * marks the point of attachment. γGlu = O=C(O)[C@H](CCC(=O)[*:2])N[*:1]; Palmitoyl = CCCCCCCCCCCCCCCC(=O)*; Orn = NCCC[C@H](N)C(=O)O; Aib = CC(C)(N)C(=O)O

How the values were obtained:
Assay type in all cases: cell-based
glucagon receptor = molecular target: T1, glucagon receptor (Homo sapiens, UniProt P47871); assay: cAMP induction, firefly luciferase reporter assay in HEK293 cells co-transfected with the glucagon receptor; conditions: HEK293 cells, cAMP-responsive luciferase reporter, 5 hours incubation
T1 construct: expressed in transfected cells; host or cells: HEK293
T1 sequence (P47871 26-477, species assumed): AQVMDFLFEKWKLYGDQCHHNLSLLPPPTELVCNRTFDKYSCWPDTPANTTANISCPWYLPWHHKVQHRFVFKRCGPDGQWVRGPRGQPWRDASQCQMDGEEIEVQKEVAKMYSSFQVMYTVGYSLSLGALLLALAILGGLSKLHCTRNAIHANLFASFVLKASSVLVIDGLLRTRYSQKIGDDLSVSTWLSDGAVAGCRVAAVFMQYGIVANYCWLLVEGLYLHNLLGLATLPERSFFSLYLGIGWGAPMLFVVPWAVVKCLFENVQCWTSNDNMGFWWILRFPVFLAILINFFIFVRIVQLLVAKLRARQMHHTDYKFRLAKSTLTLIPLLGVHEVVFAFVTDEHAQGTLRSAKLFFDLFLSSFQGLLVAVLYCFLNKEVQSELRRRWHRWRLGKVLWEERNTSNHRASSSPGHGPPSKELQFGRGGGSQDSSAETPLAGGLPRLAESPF
Method: (§1) The ability of each peptide to induce cAMP was measured in a firefly luciferase-based reporter assay. […] At the end of the incubation, 100 μL of LucLite luminescence substrate reagent (Perkin Elmer, Wellesley, Mass.) were added to each well. […] In some instances, the in vitro agonist activity at the GIP receptor was also tested.

GLP-1 receptor = molecular target: T2, GLP-1 receptor (Homo sapiens, UniProt P43220); assay: cAMP induction, firefly luciferase reporter assay in HEK293 cells co-transfected with the GLP-1 receptor; conditions: HEK293 cells, cAMP-responsive luciferase reporter, 5 hours incubation
T2 construct: expressed in transfected cells; host or cells: HEK293
T2 sequence (P43220 24-463): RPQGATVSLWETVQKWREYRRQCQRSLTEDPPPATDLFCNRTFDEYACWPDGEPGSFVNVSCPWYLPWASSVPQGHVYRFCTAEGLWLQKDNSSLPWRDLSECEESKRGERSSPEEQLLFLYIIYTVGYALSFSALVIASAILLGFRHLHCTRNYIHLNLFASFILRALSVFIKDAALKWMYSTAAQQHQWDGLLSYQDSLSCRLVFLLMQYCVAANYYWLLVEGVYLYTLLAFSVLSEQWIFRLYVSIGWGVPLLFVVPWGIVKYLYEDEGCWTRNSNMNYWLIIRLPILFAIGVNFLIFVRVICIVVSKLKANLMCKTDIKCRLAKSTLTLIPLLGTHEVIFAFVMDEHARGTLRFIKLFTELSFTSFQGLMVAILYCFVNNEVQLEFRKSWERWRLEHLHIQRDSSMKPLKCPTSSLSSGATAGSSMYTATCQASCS
Method: as §1

GIP receptor = molecular target: T3, GIP receptor (Homo sapiens, UniProt P48546); assay: in vitro agonist activity at the GIP receptor (cAMP luciferase reporter, HEK293 cells); conditions: in vitro agonist activity; read-out: EC50 (nM) at GIP receptor
T3 construct: expressed in transfected cells; host or cells: HEK293
T3 sequence (P48546 22-466): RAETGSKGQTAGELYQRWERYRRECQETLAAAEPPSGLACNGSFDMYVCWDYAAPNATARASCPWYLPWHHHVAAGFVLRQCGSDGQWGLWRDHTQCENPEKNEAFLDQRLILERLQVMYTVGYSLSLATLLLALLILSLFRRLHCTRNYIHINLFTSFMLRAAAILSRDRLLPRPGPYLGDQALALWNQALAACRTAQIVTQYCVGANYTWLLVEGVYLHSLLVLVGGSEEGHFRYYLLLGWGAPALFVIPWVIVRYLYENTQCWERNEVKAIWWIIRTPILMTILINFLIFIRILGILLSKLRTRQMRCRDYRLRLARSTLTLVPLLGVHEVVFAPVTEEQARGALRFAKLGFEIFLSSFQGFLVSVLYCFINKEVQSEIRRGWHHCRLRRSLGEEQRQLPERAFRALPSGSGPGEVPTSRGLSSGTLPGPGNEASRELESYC
Method: as §1, with “It is understood that a lower EC50 indicates higher activity or potency at the receptor. […] The” for “The”

Row | EC50 (glucagon receptor) | EC50 (GLP-1 receptor) | EC50 (GIP receptor) | SMILES
1 | 0.023 nM | 0.019 nM | 3.96 nM | CCCCCCCCCCCCCCCC(=O)N[C@@H](CCC(=O)N[C@@H](CCC(=O)NCCCC[C@H](NC(=O)[C@H](CC(=O)O)NC(=O)[C@H](CO)NC(=O)[C@@H](NC(=O)[C@H](Cc1ccccc1)NC(=O)[C@@H](NC(=O)CNC(=O)[C@H](CCC(N)=O)NC(=O)C(C)(C)NC(=O)[C@@H](N)Cc1c[nH]cn1)[C@@H](C)O)[C@@H](C)O)C(=O)N[C@@H](CO)C(=O)N[C@@H](CCCCN)C(=O)N[C@@H](Cc1ccc(O)cc1)C(=O)N[C@@H](CC(C)C)C(=O)N[C@@H](CC(=O)O)C(=O)NC(C)(C)C(=O)N[C@@H](CCCNC(=N)N)C(=O)N[C@@H](C)C(=O)N[C@@H](C)C(=O)N[C@@H](CCC(N)=O)C(=O)N[C@@H](CC(=O)O)C(=O)N[C@@H](Cc1ccccc1)C(=O)N[C@H](C(=O)N[C@@H](CCC(N)=O)C(=O)N[C@@H](Cc1c[nH]c2ccccc12)C(=O)N[C@@H](CC(C)C)C(=O)N[C@@H](CCSC)C(=O)N[C@@H](CCCN)C(=O)N[C@H](C(=O)N[C@@H](CCCN)C(=O)N[C@@H](CCC(=O)O)C(=O)O)[C@@H](C)O)C(C)C)C(=O)O)C(=O)O [compound 33] (H-H[Aib]QGTFTSDK([γGlu-γGlu-Palmitoyl])SKYLD[Aib]RAAQDFVQWLM[Orn]T[Orn]E-OH; N-terminus assumed)
2 | 0.018 nM | 0.016 nM | 3.3 nM | CCCCCCCCCCCCCCCC(=O)N[C@@H](CCC(=O)N[C@@H](CCC(=O)NCCCC[C@H](NC(=O)[C@H](CC(=O)O)NC(=O)[C@H](CO)NC(=O)[C@@H](NC(=O)[C@H](Cc1ccccc1)NC(=O)[C@@H](NC(=O)CNC(=O)[C@H](CCC(N)=O)NC(=O)C(C)(C)NC(=O)[C@@H](N)Cc1c[nH]cn1)[C@@H](C)O)[C@@H](C)O)C(=O)N[C@@H](CO)C(=O)N[C@@H](CCCCN)C(=O)N[C@@H](Cc1ccc(O)cc1)C(=O)N[C@@H](CC(C)C)C(=O)N[C@@H](CC(=O)O)C(=O)NC(C)(C)C(=O)N[C@@H](CCCNC(=N)N)C(=O)N[C@@H](C)C(=O)N[C@@H](C)C(=O)N[C@@H](CCC(N)=O)C(=O)N[C@@H](CC(=O)O)C(=O)N[C@@H](Cc1ccccc1)C(=O)N[C@H](C(=O)N[C@@H](CCC(N)=O)C(=O)N[C@@H](Cc1c[nH]c2ccccc12)C(=O)N[C@@H](CC(C)C)C(=O)N[C@@H](CCSC)C(=O)N[C@@H](CCCCN)C(=O)N[C@H](C(=O)N[C@@H](CCCCN)C(=O)N[C@H](CCC(=O)O)C(=O)O)[C@@H](C)O)C(C)C)C(=O)O)C(=O)O [compound 37] (H-H[Aib]QGTFTSDK([γGlu-γGlu-Palmitoyl])SKYLD[Aib]RAAQDFVQWLMKTK[dE]-OH; N-terminus assumed)
3 | 0.021 nM | 0.004 nM | 1.46 nM | CCCCCCCCCCCCCCCC(=O)N[C@@H](CCC(=O)N[C@@H](CCC(=O)NCCCC[C@H](NC(=O)[C@H](CC(=O)O)NC(=O)[C@H](CO)NC(=O)[C@@H](NC(=O)[C@H](Cc1ccccc1)NC(=O)[C@@H](NC(=O)CNC(=O)[C@H](CCC(N)=O)NC(=O)C(C)(C)NC(=O)[C@@H](N)Cc1c[nH]cn1)[C@@H](C)O)[C@@H](C)O)C(=O)N[C@@H](CO)C(=O)N[C@@H](CCCCN)C(=O)N[C@@H](Cc1ccc(O)cc1)C(=O)N[C@@H](CC(C)C)C(=O)N[C@@H](CC(=O)O)C(=O)NC(C)(C)C(=O)N[C@@H](CCCNC(=N)N)C(=O)N[C@@H](C)C(=O)N[C@@H](C)C(=O)N[C@@H](CCC(N)=O)C(=O)N[C@@H](CC(=O)O)C(=O)N[C@@H](Cc1ccccc1)C(=O)N[C@H](C(=O)N[C@@H](CCC(N)=O)C(=O)N[C@@H](Cc1c[nH]c2ccccc12)C(=O)N[C@@H](CC(C)C)C(=O)N[C@@H](CCCCN)C(=O)N[C@@H](CC(=O)O)C(=O)NCC(=O)N[C@@H](CCCNC(=N)N)C(=O)NCC(N)=O)C(C)C)C(=O)O)C(=O)O [compound 24] (H-H[Aib]QGTFTSDK([γGlu-γGlu-Palmitoyl])SKYLD[Aib]RAAQDFVQWLKDGRG-NH2; N-terminus assumed)
